Data published in US20220387417A1, “Pharmaceutical Combination and Use Thereof” (CSTONE PHARMACEUTICALS (SUZHOU) CO., LTD., priority 2019, published 2022).
Where “and” joins values, the source holds several entries; their conditions need not be identical. Identical values can stand only once. Counter-ions that a name gives are not always drawn.

Assays:
[1] = system: subcutaneous MC38-hPD-L1 transplanted tumor; assay: Antibody 1.14.4 monotherapy or in combination with Lenvatinib mesylate on B-hPD-1 humanized mouse MC38-hPD-L1 colon cancer model: tumor volume, tumor weight, TGI, synergy score; type: in vivo
Description: (§1) Mouse colon cancer cells MC38 were purchased from Shun Ran (Shanghai) Biotechnology Co., Ltd., and the cells were cultured in a 37° C., 5% CO2 incubator supplemented with Dulbecco's Modified Eagle's medium containing 10% inactivated fetal bovine serum. MC38 cells were genetically modified to overexpress human PD-L1 and knock out murine PD-L1, the modified cells were named as MC38-hPD-L1 cells.
(§2) MC38-hPD-L1 tumor cells were resuspended in 1×PBS to a concentration of 5×10^6 cells/mL. Each of the B-hPD-1 humanized mice was subcutaneously inoculated at the right lateral thorax region with 0.1 mL of the cell suspension, and a total of 85 mice were inoculated. On the 7th day after inoculation, when the average tumor volume reached about 103 mm^3, the mice with moderate tumor volume were selected and randomly divided into 8 groups according to tumor volume, with 7 mice in each group, and the treatment was initiated on the same day.
Tumor volume was measured three times a week in two dimensions using a caliper, and the volume was expressed in mm^3 using the formula: V=0.5 a×b^2 where a and b were the long and short diameters of the tumor, respectively.
(§3) At the termination of the experiment, the animals were photographed to record the tumor bearing state after euthanasia, and the tumors of the mice were weighed and photographed.
TGITV(%)=[1−(Ti−T0)/(Vi−V0)]×100%.
Ti: tumor volume of the treatment group at day i following treatment; T0: tumor volume of the treatment group at day 0 following treatment; Vi: tumor volume of the control group at day i following treatment; V0: tumor volume of the control group at day 0 following treatment.
At the termination of the experiment, the animals were euthanized, the tumors were separated and weighed, and the difference of tumor weight between each group was calculated. Tumor weight inhibition (TGITW) was calculated by the formula:
TGITW (%)=(WC−WT)/[…]×100%; where We means tumor weight of control group, WT means tumor weight of treatment group.
(§4) The original data measured and observed must be recorded. The original data was analyzed and the results were expressed by mean and standard error (Mean±SEM). The data of body weight, tumor volume and tumor weight was statistically analyzed using independent-samples t-test. All data were analyzed using SPSS, P<0.05 is considered to be statistically significant. The results of the analysis were considered both statistical significance and biological significance.
(§5) Synergy score was calculated using the following formula described in Clarke R. Issues in experimental design and endpoint analysis in the study of experimental cytotoxic agents in vivo in breast cancer and other models[J]. Breast Cancer Research & Treatment, 1997, 46(2-3):255-278, which is incorporated by reference in its entirety:
(§6) Synergy score=((A/C)×(B/C))/(AB/C);
(§7) where A is RTV value of drug A; B is RTV value of drug B; C is RTV value of vehicle control; AB is RTV value of combination treatment with A and B respectively. • Synergy score>1 represents synergistic; • Synergy score=1 represents additive; • Synergy score<1 represents antagonistic.
(§8) where V0 and Vt are the average tumor volume at the start of treatment (day 0) and the average tumor volume on a certain time point (day t).

[2] = Body weight of B-hPD-1 mice bearing MC38-hPD-L1 tumors, Embodiment 1 (antibody 1.14.4 / Lenvatinib mesylate); type: in vivo, Mus musculus
Description: as §2
(§9) Animals were weighed 2-3 times a week before tumor inoculation, during animal grouping and the treatment, and before the euthanasia.
as §4

[3] = system: subcutaneous MC38-hPD-L1 transplanted tumor; assay: Antibody 2E5 monotherapy or in combination with Lenvatinib mesylate on B-hPD-1 humanized mouse MC38-hPD-L1 colon cancer model: tumor volume, tumor weight, TGI, synergy score; type: in vivo
Description: as §5, §6, §7, §8, §1
as §2, with “of 5×10^5 cells per 0.1 mL.” for “of 5×10^6 cells/mL.”, “cell suspension. When” for “cell suspension, and a total of 85 mice were inoculated. On the 7th day after inoculation, when”, “about 77” for “about 103”, “into 6” for “into 8”, “with 10” for “with 7”
Tumor volume was measured 2-3 times a week in two dimensions using a caliper, and the volume was expressed in mm^3 using the formula: V=0.5 a×b^2 where a and b were the long and short diameters of the tumor, respectively.
as §3
TGITV(%)=[1−(Ti−T0)/(Vi−V0)]×100%. […]
At the termination of the experiment, the animals were euthanized, the tumors were separated and weighed, and the difference of tumor weight between each group was calculated. Tumor weight inhibition (TGITW) was calculated by the formula: […]
as §4, with “significant.” for “significant. The results of the analysis were considered both statistical significance and biological significance.”

[4] = Body weight of B-hPD-1 humanized mice bearing MC38-hPD-L1 tumors, Embodiment 2 (antibody 2E5 / Lenvatinib mesylate); type: in vivo, Mus musculus
Description: as §2, with “of 5×10^5 cells per 0.1 mL.” for “of 5×10^6 cells/mL.”, “cell suspension. When” for “cell suspension, and a total of 85 mice were inoculated. On the 7th day after inoculation, when”, “about 77” for “about 103”, “into 6” for “into 8”, “with 10” for “with 7”
as §9
as §4, with “significant.” for “significant. The results of the analysis were considered both statistical significance and biological significance.”

[5] = 17th day after the start of treatment, Antibody 2E5 1 mg/kg i.p., Lenvatinib mesylate 1 mg/kg p.o. QD (G2, G4, G5)

COc1cc2nccc(Oc3ccc(NC(=O)NC4CC4)c(Cl)c3)c2cc1C(N)=O [Lenvatinib mesylate, reference compound]
Tumor volume (mm^3)/Mean ± SEM Day 16 ([1]; 16th day after the start of treatment, antibody 1.14.4 3 mg/kg Q2D i.p., Lenvatinib mesylate 1 mg/kg QD p.o.): 1333 ± 261 mm^3 | Tumor volume (mm^3)/Mean ± SEM Day 0 ([1]; Day 0, Antibody 1.14.4 3 mg/kg, Lenvatinib mesylate 1 mg/kg, Table 11): 103 ± 8 mm^3 | Tumor volume (mm^3)/Mean ± SEM Day 0 ([1]; Day 0 = day of the start of treatment, antibody 1.14.4 3 mg/kg, Lenvatinib mesylate 1 mg/kg, Table 10): 103 ± 8 mm^3 | Tumor volume (mm^3)/Mean ± SEM Day 20 ([1]; Day 20, Antibody 1.14.4 3 mg/kg Q2D i.p., Lenvatinib mesylate 1 mg/kg QD p.o.): 1726 ± 374 mm^3 | Tumor weight (g) Mean ± SEM ([1]; Day 20, antibody 1.14.4 3 mg/kg, Lenvatinib mesylate 1 mg/kg, Table 13): 1.244 ± 0.292 g | Tumor weight (g), group Mean ([1]; group mean (7 mice), Day 20, Antibody 1.14.4 3 mg/kg, Lenvatinib mesylate 1 mg/kg): 1.244 g | Tumor weight (g), individual animal ([1]; individual mouse, 20th day after the start of treatment, Antibody 1.14.4 3 mg/kg Q2D i.p., Lenvatinib mesylate 1 mg/kg QD p.o.): 1.039 g and 2.048 g and 2.485 g and 0.652 g and 0.408 g and 1.362 g and 0.715 g | TGITV (%) ([1]; tumor growth inhibition by tumor volume, Day 16, vs hIgG4 control, antibody 1.14.4 3 mg/kg, Lenvatinib mesylate 1 mg/kg): 38.8% | TGITW ([1]; tumor weight inhibition vs hIgG4 control, Day 20, Antibody 1.14.4 3 mg/kg, Lenvatinib mesylate 1 mg/kg): 21.3% | Weight (g)/Mean ± SEM Day 16 ([2]; 16th day after the start of treatment, Antibody 1.14.4 3 mg/kg, Lenvatinib mesylate 1 mg/kg): 22.5 ± 0.2 g | Weight (g)/Mean ± SEM Day 0 ([2]; Day 0 = day of the start of treatment, Antibody 1.14.4 3 mg/kg, Lenvatinib mesylate 1 mg/kg): 19.9 ± 0.3 g | Weight (g) Changes ([2]; Day 16 vs Day 0, Antibody 1.14.4 3 mg/kg, Lenvatinib mesylate 1 mg/kg): +2.6 g | Days after the start of treatment/weight (g), group Mean, day 0 ([2]; group mean (7 mice), day 0, Antibody 1.14.4 3 mg/kg Q2D i.p., Lenvatinib mesylate 1 mg/kg QD p.o.): 19.9 g | Days after the start of treatment/weight (g), group Mean, day 3 ([2]; group mean (7 mice), day 3, Antibody 1.14.4 3 mg/kg Q2D i.p., Lenvatinib mesylate 1 mg/kg QD p.o.): 19.5 g | Days after the start of treatment/weight (g), group Mean, day 6 ([2]; group mean (7 mice), day 6, Antibody 1.14.4 3 mg/kg Q2D i.p., Lenvatinib mesylate 1 mg/kg QD p.o.): 20.3 g | Days after the start of treatment/weight (g), group Mean, day 8 ([2]; group mean (7 mice), day 8, Antibody 1.14.4 3 mg/kg Q2D i.p., Lenvatinib mesylate 1 mg/kg QD p.o.): 20.5 g | Days after the start of treatment/weight (g), group Mean, day 10 ([2]; group mean (7 mice), day 10, Antibody 1.14.4 3 mg/kg Q2D i.p., Lenvatinib mesylate 1 mg/kg QD p.o.): 20.9 g | Days after the start of treatment/weight (g), group Mean, day 12 ([2]; group mean (7 mice), day 12, Antibody 1.14.4 3 mg/kg Q2D i.p., Lenvatinib mesylate 1 mg/kg QD p.o.): 21.2 g | Days after the start of treatment/weight (g), group Mean, day 14 ([2]; group mean (7 mice), day 14, Antibody 1.14.4 3 mg/kg Q2D i.p., Lenvatinib mesylate 1 mg/kg QD p.o.): 22.3 g | Days after the start of treatment/weight (g), group Mean, day 16 ([2]; group mean (7 mice), day 16, Antibody 1.14.4 3 mg/kg Q2D i.p., Lenvatinib mesylate 1 mg/kg QD p.o.): 22.5 g | Days after the start of treatment/weight (g), group Mean, day 19 ([2]; group mean (7 mice), day 19, Antibody 1.14.4 3 mg/kg Q2D i.p., Lenvatinib mesylate 1 mg/kg QD p.o.): 21.9 g | Days after the start of treatment/weight (g), group Mean, day 20 ([2]; group mean (7 mice), day 20, Antibody 1.14.4 3 mg/kg Q2D i.p., Lenvatinib mesylate 1 mg/kg QD p.o.): 22.7 g | Days after the start of treatment/weight (g), individual animal, day 0 ([2]; individual mouse, day 0, Antibody 1.14.4 3 mg/kg Q2D i.p., Lenvatinib mesylate 1 mg/kg QD p.o.): 18.6 g and 19.5 g and 19.4 g and 20.0 g and 20.2 g and 20.8 g (2×) | Days after the start of treatment/weight (g), individual animal, day 3 ([2]; individual mouse, day 3, Antibody 1.14.4 3 mg/kg Q2D i.p., Lenvatinib mesylate 1 mg/kg QD p.o.): 18.8 g and 19.2 g and 18.9 g and 19.7 g and 19.3 g and 20.3 g and 20.2 g | Days after the start of treatment/weight (g), individual animal, day 6 ([2]; individual mouse, day 6, Antibody 1.14.4 3 mg/kg Q2D i.p., Lenvatinib mesylate 1 mg/kg QD p.o.): 19.4 g and 20.1 g and 19.8 g and 20.6 g and 20.3 g and 21.2 g and 20.8 g | Days after the start of treatment/weight (g), individual animal, day 8 ([2]; individual mouse, day 8, Antibody 1.14.4 3 mg/kg Q2D i.p., Lenvatinib mesylate 1 mg/kg QD p.o.): 19.5 g and 20.6 g and 20.4 g and 20.7 g and 20.3 g and 21.0 g (2×) | Days after the start of treatment/weight (g), individual animal, day 10 ([2]; individual mouse, day 10, Antibody 1.14.4 3 mg/kg Q2D i.p., Lenvatinib mesylate 1 mg/kg QD p.o.): 20.2 g and 21.1 g and 20.1 g and 21.5 g and 20.4 g and 21.7 g and 21.4 g | Days after the start of treatment/weight (g), individual animal, day 12 ([2]; individual mouse, day 12, Antibody 1.14.4 3 mg/kg Q2D i.p., Lenvatinib mesylate 1 mg/kg QD p.o.): 20.1 g and 21.1 g (2×) and 21.4 g and 20.7 g and 22.2 g and 21.6 g | Days after the start of treatment/weight (g), individual animal, day 14 ([2]; individual mouse, day 14, Antibody 1.14.4 3 mg/kg Q2D i.p., Lenvatinib mesylate 1 mg/kg QD p.o.): 20.9 g and 22.9 g and 22.0 g (2×) and 22.2 g and 23.0 g (2×) | Days after the start of treatment/weight (g), individual animal, day 16 ([2]; individual mouse, day 16, Antibody 1.14.4 3 mg/kg Q2D i.p., Lenvatinib mesylate 1 mg/kg QD p.o.): 21.6 g and 22.8 g (2×) and 22.6 g and 22.5 g and 21.9 g and 23.0 g | Days after the start of treatment/weight (g), individual animal, day 19 ([2]; individual mouse, day 19, Antibody 1.14.4 3 mg/kg Q2D i.p., Lenvatinib mesylate 1 mg/kg QD p.o.): 21.2 g and 23.0 g (2×) and 21.9 g and 21.4 g and 22.6 g and 20.3 g | Days after the start of treatment/weight (g), individual animal, day 20 ([2]; individual mouse, day 20, Antibody 1.14.4 3 mg/kg Q2D i.p., Lenvatinib mesylate 1 mg/kg QD p.o.): 21.5 g and 23.2 g (3×) and 22.6 g and 22.1 g and 22.9 g | Tumor volume (mm^3)/Mean ± SEM Day 17 [3, 5]: 891 ± 149 mm^3 | Tumor weight (g) Mean ± SEM ([3]; Day 17, Antibody 2E5 1 mg/kg, Lenvatinib mesylate 1 mg/kg (G2, G4, G5)): 0.767 ± 0.103 g | Tumor growth inhibition (%) ([3]; by tumor volume, Day 17, vs hIgG4 control, Antibody 2E5 1 mg/kg, Lenvatinib mesylate 1 mg/kg (G2, G4, G5)): 68.2% | Tumor growth inhibition (%) ([3]; tumor weight analysis (Table 21), Day 17, vs IgG4 control, Antibody 2E5 1 mg/kg, Lenvatinib mesylate 1 mg/kg (G2, G4, G5)): 63.2% | Weight (g)/Mean ± SEM Day 17 [4, 5]: 28.0 ± 0.8 g | Weight (g)/Mean ± SEM Day 0 ([4]; Day 0, Antibody 2E5 1 mg/kg i.p., Lenvatinib mesylate 1 mg/kg p.o. QD (G2, G4, G5)): 24.9 ± 0.8 g | Weight (g) Changes ([4]; Day 17 vs Day 0, Antibody 2E5 1 mg/kg, Lenvatinib mesylate 1 mg/kg (G2, G4, G5)): +3.1 g
